According to patent publication US9610463B2, “Cosmetic or dermatological preparation comprising collagen, chitosan, glycosylaminoglycan and cell growth promoting peptide and/or cellular complex” (BEIERSDORF AG, priority 2009, dated 2017):
Values joined by “and” are separate entries in the source; they are usually repeats but may differ in a detail not shown here. Identical values can stand only once.

What was measured:
Assay type in all cases: cell-based
[1] = tested on: NIH3T3 fibroblast cell line; assay: ECM expression (ELISA): procollagen expression by fibroblast cells; settings: control = 100
Procedure: (§1) The effect of the addition of MPC and MPC+IDP4 on the extracellular matrix expression of procollagen, fibronectin, elastin, hyaluronic acid and laminine by the following cells was investigated: • 1. HacaT keratinocyte cell line (hyaluronic acid, laminine) • 2. NIH3T3 fibroblast cell line (procollagen, fibronectin, elastin).
(§2) Method: • (1) Cell seeding • (2) Starvation for 24 h with serum-free DMEM media • (3) Sample treatment • (4) Cultivation for 72 h • (5) Cell supernatant collection • (6) Assay
(§3) Assay (ELISA): • (a) Coating with capture antibody • (b) Blocking (blocking solution) • (c) Aspiration and washing each well five times • (d) Addition of sample and standard to each well • (e) Aspiration and washing each well five times • (f) Addition of conjugate to each well • (g) Aspiration and washing each well five times • (h) Addition of substrate solution to each well • (i) Addition of stop solution to each well • (j) Reading of optical density at 450 nm
as §1, with “GPVE” for “MPC”, “GPVE+IDP4” for “MPC+IDP4”
as §1, with “GPVE/MPC” for “the addition of MPC”, “GPVE/MPC+IDP4” for “MPC+IDP4”

mesenchymal stem cells = assay: Protective effect against H2O2 (anti-apoptosis effect); settings: W/O H2O2; With H2O2 0% MPC = 100
Procedure: The protective (anti-apoptosis) effect of the addition of MPC and MPC+IDP4 on mesenchymal stem cells against H2O2 (free radical former) was tested.
Method: • (1) Cell seeding • (2) Starvation for 24 h with serum-free DMEM media • (3) Sample treatment • (4) Cultivation for 24 h • (5) Treatment with 5 mM H2O2 • (6) Incubation for 24 h • (7) Cell growth assay

[2] = tested on: MSC (mesenchymal stem cells); assay: Cell growth assay, mesenchymal stem cells
Procedure: (§4) The effect of the addition of MPC vs. (MPC+IDP4), GPVE vs. (GPVE+IDP4), and GPVE/MPC vs. (GPVE/MPC=IDP4) on the growth of the following cells was investigated: • 1. HacaT keratinocyte cell line • 2. NIH3T3 fibroblast cell line • 3. MSC (mesenchymal stem cells).
(§5) Method: • (1) Cell seeding • (2) Starvation for 24 h with serum-free DMEM media • (3) Sample treatment • (4) Cultivation for 72 h • (5) Cell harvesting • (6) Cell growth assay

[3] = tested on: HacaT keratinocyte cell line; assay: ECM expression (ELISA): hyaluronic acid expression by keratinocyte cells; settings: control = 100
Procedure: Method: • (1) Cell seeding • (2) Starvation for 24 h with serum-free DMEM media • (3) Sample treatment • (4) Cultivation for 72 h • (5) Cell supernatant collection • (6) Assay […]

[4] = tested on: NIH3T3 fibroblast cell line; assay: Cell growth assay, NIH3T3 fibroblast cell line
Procedure: as §4, §5

[5] = tested on: HacaT keratinocyte cell line; assay: ECM expression (ELISA): laminine expression by keratinocyte cells; settings: control = 100
Procedure: as §1, §2, §3
as §1, with “GPVE” for “MPC”, “GPVE+IDP4” for “MPC+IDP4”
as §1, with “GPVE/MPC” for “the addition of MPC”, “GPVE/MPC+IDP4” for “MPC+IDP4”

[6] = tested on: NIH3T3 fibroblast cell line; assay: ECM expression (ELISA): fibronectin expression by fibroblast cells; settings: control = 100
Procedure: as §1, §2, §3
as §1, with “GPVE” for “MPC”, “GPVE+IDP4” for “MPC+IDP4”
as §1, with “GPVE/MPC” for “the addition of MPC”, “GPVE/MPC+IDP4” for “MPC+IDP4”

[7] = tested on: HacaT keratinocyte cell line; assay: Cell growth assay, HacaT keratinocyte cell line
Procedure: as §4, §5

[8] = tested on: NIH3T3 fibroblast cell line; assay: ECM expression (ELISA): elastin expression by fibroblast cells; settings: control = 100
Procedure: as §1, §2, §3
as §1, with “GPVE” for “MPC”, “GPVE+IDP4” for “MPC+IDP4”
as §1, with “GPVE/MPC” for “the addition of MPC”, “GPVE/MPC+IDP4” for “MPC+IDP4”

[9] = alone at the concentration employed (1 μg)

oligopeptide-21 [IDP4]
procollagen % ([1]; 10 ng/ml): 175% | procollagen % ([1]; 100 ng/ml): 226% | procollagen % ([1]; 1 μg/ml): 302% | procollagen % ([1]; 10 μg/ml): 333% | cell growth, MSC (mesenchymal stem cells): 175 | growth, MSC (%) ([2]; 10 μg/ml, control = 100): 145% | significance of increase in growth, mesenchymal stem cells [2, 9]: did not afford any statistically significant increase in growth | hyaluronic acid % ([3]; 10 ng/ml): 110% | hyaluronic acid % ([3]; 100 ng/ml): 137.5% | hyaluronic acid % ([3]; 1 μg/ml): 150% | hyaluronic acid % ([3]; 10 μg/ml): 160% | growth, NIH3T3 (%) ([4]; 10 μg/ml, control = 100): 260% | significance of increase in growth, fibroblast cell line [4, 9]: did not afford any statistically significant increase in growth | laminine % ([5]; 10 ng/ml): 115% | laminine % ([5]; 100 ng/ml): 135% | laminine % ([5]; 1 μg/ml): 175% | laminine % ([5]; 10 μg/ml): 177.5% | fibronectin % ([6]; 10 ng/ml): 101% | fibronectin % ([6]; 100 ng/ml): 105% | fibronectin % ([6]; 1 μg/ml): 116% | fibronectin % ([6]; 10 μg/ml): 158% | growth, Haca T (%) ([7]; 10 μg/ml, control = 100): 148% | significance of increase in growth, keratinocyte cell line [7, 9]: did not afford any statistically significant increase in growth | elastin % ([8]; 10 ng/ml): 131% | elastin % ([8]; 100 ng/ml): 127% | elastin % ([8]; 1 μg/ml): 137% | elastin % ([8]; 10 μg/ml): 131% and 137%
